test system: HBV; test: HepAD38 antiviral assay: reduction of viral product accumulation (virion DNA by qPCR, HBsAg or HBeAg by ELISA); assay type: cell-based, hepatitis B virus; details: Hepatitis B virus, 120 h; HepAD38 cells, five days after compound addition; 50% reduction of viral product vs no drug controls; read-out: HepAD38 EC50
Protocol: Methods: HepAD38 cells are maintained as previously reported (Ladner et al, Antimicrob. Agents Chemother. 1997, […], 1715). Briefly, cells are passaged upon attaining confluency in DMEM/F12 media in the presence of 10% FBS, Penn/Strep, 250 μg/mL G418, and 1 ug/ml tetracycline. Novel compounds are screened by first washing cells three times with PBS to remove tetracycline, and plating in 96 well plates at 35,000 cells/well. Compounds dissolved in DMSO are then diluted 1:200 into wells containing cells. Five days after compound addition, material is harvested for analysis. For an extended 8 days analysis, cells are plated and treated as described above, but media and compound are refreshed on d2 and d5 post initial treatment.
On harvest day, virion DNA is obtained by lysing with Sidestep Lysis and Stabilization Buffer and then quantified via quantitative real time PCR. Commercially available ELISA kits are used to quantitate the viral proteins HBsAg (Alpco) or HbeAg (US Biological) by following the manufacturer's recommended protocol after diluting samples to match the linear range of their respective assays.

**Q.** With `CC(O)[C@@]1(O)C2CC[C@H]1C[C@H](S(=O)(=O)c1cc(C(=O)Nc3cc(F)c(F)c(F)c3)ccc1Cl)C2` (mixture of isomers) [Example 210] as the compound, how does the EC50 read?
**A.** < 0.104 µM

**Q.** For `CC(O)[C@]1(O)CC2CC[C@@H](C1)[C@H]2S(=O)(=O)c1cc(C(=O)Nc2ccc(F)c(F)c2)ccc1Cl` (mixture of isomers) [Example 7], which EC50 is on record?
**A.** < 0.104 µM

**Q.** How did the EC50 turn out when `CC(O)C(O)CNC(=O)[C@]1(O)C2CCC1C[C@@H](S(=O)(=O)c1cc(C(=O)Nc3cc(F)c(F)c(F)c3)ccc1Cl)C2` (mixture of isomers) [Example 38] was run?
**A.** > 0.2 µM

**Q.** For `O=C(Nc1cc(F)c(F)c(F)c1)c1ccc(Cl)c(S(=O)(=O)[C@H]2C3CC[C@H]2C[C@](O)(C(O)C(O)CO)C3)c1` (mixture of isomers) [Example 64], which EC50 is on record?
**A.** 0.1 to 0.2 µM

**Q.** For `O=C(Nc1ccc(F)c(F)c1)c1ccc(Cl)c(S(=O)(=O)[C@H]2CC3CCC(C2)[C@]3(O)C(O)CO)c1` (mixture of isomers) [Example 82], which EC50 is on record?
**A.** < 0.104 µM

**Q.** Which EC50 does the source give for `CC[C@@H](O)[C@H](O)[C@]1(O)C2CCC1C[C@@H](S(=O)(=O)c1cc(C(=O)Nc3ccc(F)c(F)c3)ccc1Cl)C2` (racemic) [Example 333] here?
**A.** < 0.104 µM

**Q.** For `O=C(Nc1cc(F)c(F)c(F)c1)c1ccc(Cl)c(S(=O)(=O)[C@@H]2CC3CC[C@@H](C2)[C@@]3(O)CNC(=O)[C@]2(O)CCC[C@H]2O)c1` (relative stereo) [Example 59], which EC50 is on record?
**A.** 0.1 to 0.2 µM

**Q.** For `O=C(Nc1cc(F)c(F)c(F)c1)c1ccc(Cl)c(S(=O)(=O)[C@H]2CC3CCC(C2)[C@]3(O)CNC(=O)[C@@H]2CCCO2)c1` (single isomer, unassigned) [Example 14], which EC50 is on record?
**A.** < 0.104 µM

**Q.** Which EC50 does the source give for `O=C(Nc1cc(F)c(F)c(F)c1)c1ccc(Cl)c(S(=O)(=O)[C@H]2CC3CCC(C2)[C@]3(O)CNC(=O)C2CCC(O)C(O)C2)c1` (single isomer, unassigned) [Example 19] here?
**A.** > 0.2 µM

**Q.** Which EC50 does the source give for `C[C@H](O)C(=O)O[C@@H](C)C(=O)NC[C@]1(O)C2CCC1C[C@@H](S(=O)(=O)c1cc(C(=O)Nc3cc(F)c(F)c(F)c3)ccc1Cl)C2` (single isomer, unassigned) [Example 106] here?
**A.** < 0.104 µM

**Q.** With `C[C@H](O)[C@H](O)[C@]1(O)C2CCC1C[C@@H](S(=O)(=O)c1cc(C(=O)Nc3cc(F)c(F)c(F)c3)ccc1Cl)C2` (single isomer, unassigned) [Example 108] as the compound, how does the EC50 read?
**A.** < 0.104 µM

**Q.** How did the EC50 turn out when `C[C@@H](O)[C@H](O)[C@]1(O)C2CCC1C[C@@H](S(=O)(=O)c1cc(C(=O)Nc3cc(F)c(F)c(F)c3)ccc1Cl)C2` (single isomer, unassigned) [Example 109] was run?
**A.** < 0.104 µM

**Q.** For `C[C@H](O)[C@@H](O)COC[C@]1(O)C2CCC1C[C@@H](S(=O)(=O)c1cc(C(=O)Nc3cc(F)c(F)c(F)c3)ccc1Cl)C2` (single isomer, unassigned) [Example 164], which EC50 is on record?
**A.** < 0.104 µM

**Q.** With `O=C(Nc1ccc(F)c(F)c1)c1ccc(Cl)c(S(=O)(=O)[C@H]2CC3CCC(C2)[C@]3(O)[C@H](O)CO)c1` (single isomer, unassigned) [Example 174] as the compound, how does the EC50 read?
**A.** < 0.104 µM

**Q.** For `O=C(Nc1ccc(F)c(F)c1)c1ccc(Cl)c(S(=O)(=O)[C@H]2CC3CCC(C2)[C@]3(O)[C@@H](O)CO)c1` (single isomer, unassigned) [Example 175], which EC50 is on record?
**A.** < 0.104 µM

**Q.** Which EC50 does the source give for `C[C@H](O)[C@H](O)[C@]1(O)C2CCC1C[C@@H](S(=O)(=O)c1cc(C(=O)Nc3ccc(F)c(F)c3)ccc1Cl)C2` (single isomer, unassigned) [Example 181] here?
**A.** < 0.104 µM

**Q.** Which EC50 does the source give for `O=C(Nc1ccc(F)c(F)c1)c1ccc(Cl)c(S(=O)(=O)[C@H]2CC3CCC(C2)[C@H]3O)c1` (single isomer, unassigned) [Example 206] here?
**A.** 0.1 to 0.2 µM

**Q.** `O=C(Nc1ccc(F)c(F)c1)c1ccc(Cl)c(S(=O)(=O)[C@H]2CC3CCC(C2)[C@]3(O)[C@@H](O)c2ccccn2)c1` (single isomer, unassigned) [Example 284a] was tested. Which EC50 did it give?
**A.** < 0.104 µM

**Q.** How did the EC50 turn out when `O=C(Nc1ccc(F)c(F)c1)c1ccc(Cl)c(S(=O)(=O)[C@H]2CC3CCC(C2)[C@]3(O)[C@@H](O)c2ccc(F)cn2)c1` (single isomer, unassigned) [Example 291a] was run?
**A.** < 0.104 µM

**Q.** With `O=C(Nc1ccc(F)c(F)c1)c1ccc(Cl)c(S(=O)(=O)[C@H]2CC3CCC(C2)[C@]3(O)[C@H](O)c2ccc(F)cn2)c1` (single isomer, unassigned) [Example 291b] as the compound, how does the EC50 read?
**A.** < 0.104 µM

**Q.** `O=C(CCCO)NC[C@]1(O)C2CCC1C[C@@H](S(=O)(=O)c1cc(C(=O)Nc3cc(F)c(F)c(F)c3)ccc1Cl)C2` [Example 2] was tested. Which EC50 did it give?
**A.** 0.1 to 0.2 µM

**Q.** For `NS(=O)(=O)OC[C@]1(O)CC2CC[C@@H](C1)[C@H]2S(=O)(=O)c1cc(C(=O)Nc2cc(F)c(F)c(F)c2)ccc1Cl` [Example 3], which EC50 is on record?
**A.** < 0.104 µM

**Q.** With `O=C(Nc1ccc(F)c(F)c1)c1ccc(Cl)c(S(=O)(=O)[C@H]2C3CC[C@H]2C[C@](O)(c2ncc[nH]2)C3)c1` [Example 6] as the compound, how does the EC50 read?
**A.** < 0.104 µM

**Q.** For `COC(=O)N1C[C@H](O)C[C@H]1C(=O)NC[C@]1(O)C2CCC1C[C@@H](S(=O)(=O)c1cc(C(=O)Nc3cc(F)c(F)c(F)c3)ccc1Cl)C2` [Example 8], which EC50 is on record?
**A.** > 0.2 µM

**Q.** With `O=C(Nc1cc(F)c(F)c(F)c1)c1ccc(Cl)c(S(=O)(=O)[C@H]2CC3CCC(C2)[C@]3(O)CNC(=O)[C@H]2CCCO2)c1` [Example 15] as the compound, how does the EC50 read?
**A.** < 0.104 µM

**Q.** `O=C(Nc1cc(F)c(F)c(F)c1)c1ccc(Cl)c(S(=O)(=O)[C@H]2CC3CCC(C2)[C@]3(O)CNC(=O)C2CC=CCC2)c1` (some centres unmarked) [Example 18] was tested. Which EC50 did it give?
**A.** < 0.104 µM

**Q.** For `O=C(Nc1cc(F)c(F)c(F)c1)c1ccc(Cl)c(S(=O)(=O)C2CC3CCC(C2)C3C(O)C(O)CO)c1` (centres unmarked) [Example 20], which EC50 is on record?
**A.** < 0.104 µM

**Q.** For `CC(C)(O)/C=C\[C@]1(O)C2CCC1C[C@@H](S(=O)(=O)c1cc(C(=O)Nc3cc(F)c(F)c(F)c3)ccc1Cl)C2` [Example 21], which EC50 is on record?
**A.** < 0.104 µM

**Q.** How did the EC50 turn out when `O=C(Nc1cc(F)c(F)c(F)c1)c1ccc(Cl)c(S(=O)(=O)[C@@H]2CC3CC[C@@H](C2)[C@@]3(O)CNC(=O)C2CC=CC2)c1` [Example 22] was run?
**A.** < 0.104 µM

**Q.** With `COC(=O)N1CCCC1C(=O)NC[C@@]1(O)C2CC[C@H]1C[C@H](S(=O)(=O)c1cc(C(=O)Nc3cc(F)c(F)c(F)c3)ccc1Cl)C2` (some centres unmarked) [Example 23] as the compound, how does the EC50 read?
**A.** < 0.104 µM

**Q.** How did the EC50 turn out when `O=C(Nc1cc(F)c(F)c(F)c1)c1ccc(Cl)c(S(=O)(=O)[C@@H]2CC3CC[C@@H](C2)[C@@]3(O)CNC(=O)[C@@H]2C[C@@H](O)[C@@H](O)C2)c1` [Example 24] was run?
**A.** > 0.2 µM

**Q.** `CS(=O)(=O)NCC(O)[C@]1(O)C2CCC1C[C@@H](S(=O)(=O)c1cc(C(=O)Nc3cc(F)c(F)c(F)c3)ccc1Cl)C2` (some centres unmarked) [Example 26] was tested. Which EC50 did it give?
**A.** < 0.104 µM

**Q.** For `NC(=O)C[C@H](N)C(=O)NC[C@]1(O)C2CCC1C[C@@H](S(=O)(=O)c1cc(C(=O)Nc3cc(F)c(F)c(F)c3)ccc1Cl)C2` [Example 27], which EC50 is on record?
**A.** > 0.2 µM

**Q.** Which EC50 does the source give for `CC1(C)O[C@H]2[C@H](CO[C@@H]2C(=O)NC[C@@]2(O)C3CC[C@H]2C[C@H](S(=O)(=O)c2cc(C(=O)Nc4cc(F)c(F)c(F)c4)ccc2Cl)C3)O1` [Example 28] here?
**A.** < 0.104 µM

**Q.** `O=C(Nc1cc(F)c(F)c(F)c1)c1ccc(Cl)c(S(=O)(=O)[C@@H]2CC3CC[C@@H](C2)[C@@]3(O)CNC(=O)[C@H]2OCC(O)[C@@H]2O)c1` (some centres unmarked) [Example 29] was tested. Which EC50 did it give?
**A.** > 0.2 µM

**Q.** Which EC50 does the source give for `C[C@]1(O)C2CCC1C[C@@H](S(=O)(=O)c1cc(C(=O)Nc3ccc(F)c(Br)c3)ccc1Cl)C2` [Example 30] here?
**A.** < 0.104 µM

same assay, conditions: Hepatitis B virus, HePAD38, 120 h, read-out: HepAD38 EC50 (μM)

**Q.** With `COC(=O)N[C@@H](C)C(=O)N1C2CCC1CC(S(=O)(=O)c1cc(C(=O)Nc3cc(F)c(F)c(F)c3)ccc1Cl)C2` (single isomer, unassigned) [Example 141] as the compound, how does the EC50 read?
**A.** 0.1 to 0.2 µM

**Q.** `CC1(C)OC[C@H](CN2C3CCC2CC(S(=O)(=O)c2cc(C(=O)Nc4cc(F)c(F)c(F)c4)ccc2Cl)C3)O1` (single isomer, unassigned) [Example 144] was tested. Which EC50 did it give?
**A.** 0.1 to 0.2 µM
